Measured values taken from the supplement of paper PMC10307832.

Legend:
Assay in all cases: relative viability (nuclei count vs DMSO), 5 days (fraction); higher = more cells survive
Ibrutinib + Luminespib = compound: C=CC(=O)N1CCC[C@@H](n2nc(-c3ccc(Oc4ccccc4)cc3)c3c(N)ncnc32)C1 [Ibrutinib] + CCNC(=O)c1noc(-c2cc(C(C)C)c(O)cc2O)c1-c1ccc(CN2CCOCC2)cc1 [Luminespib] (partner 0.01 µM)
In short: (§1)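 One day after seeding in 1536-well plates, lung cancer cell lines were dosed by pin tool. Dosing was either single-drug or a fixed anchor-drug dose plus five library-drug doses (not always all listed) in √10 steps. After 5 days, nuclei were stained in one fix-and-stain step and counted on 4× images, and relative viability is the nuclei count of treated wells over that of vehicle wells, given as the median of duplicate plates.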

Ibrutinib + Pemetrexed = compound: C=CC(=O)N1CCC[C@@H](n2nc(-c3ccc(Oc4ccccc4)cc3)c3c(N)ncnc32)C1 [Ibrutinib] + Nc1nc2[nH]cc(CCc3ccc(C(=O)N[C@@H](CCC(=O)O)C(=O)O)cc3)c2c(=O)[nH]1 [Pemetrexed] (partner 0.2 µM)
In short: as §1

BMX-IN-1 + Foretinib = compound: C=CC(=O)Nc1cc(-n2c(=O)ccc3cnc4ccc(-c5ccc(NS(C)(=O)=O)cc5)cc4c32)ccc1C [BMX-IN-1] + COc1cc2c(Oc3ccc(NC(=O)C4(C(=O)Nc5ccc(F)cc5)CC4)cc3F)ccnc2cc1OCCCN1CCOCC1 [Foretinib] (partner 0.25 µM)
In short: as §1

PAC-1 + OSI-027 = compound: C=CCc1cccc(/C=N/NC(=O)CN2CCN(Cc3ccccc3)CC2)c1O [PAC-1] + COc1cccc2cc(-c3nc([C@H]4CC[C@H](C(=O)O)CC4)n4ncnc(N)c34)[nH]c12 [OSI-027] (partner 0.5 µM)
In short: as §1

Cell Line | relative viability (Ibrutinib + Luminespib; first compound 0.005 µM) | relative viability (Ibrutinib + Luminespib; first compound 0.01581 µM) | relative viability (Ibrutinib + Luminespib; first compound 0.05 µM) | relative viability (Ibrutinib + Luminespib; first compound 0.1581 µM) | relative viability (Ibrutinib + Luminespib; first compound 0.5 µM) | relative viability (Ibrutinib + Pemetrexed; first compound 0.005 µM) | relative viability (Ibrutinib + Pemetrexed; first compound 0.01581 µM) | relative viability (Ibrutinib + Pemetrexed; first compound 0.05 µM) | relative viability (Ibrutinib + Pemetrexed; first compound 0.1581 µM) | relative viability (Ibrutinib + Pemetrexed; first compound 0.5 µM) | relative viability (BMX-IN-1 + Foretinib; first compound 0.02 µM) | relative viability (BMX-IN-1 + Foretinib; first compound 0.2 µM) | relative viability (BMX-IN-1 + Foretinib; first compound 0.6325 µM) | relative viability (BMX-IN-1 + Foretinib; first compound 2 µM) | relative viability (PAC-1 + OSI-027; first compound 0.02 µM) | relative viability (PAC-1 + OSI-027; first compound 0.06325 µM) | relative viability (PAC-1 + OSI-027; first compound 0.2 µM) | relative viability (PAC-1 + OSI-027; first compound 2 µM)
NCI-H1993 | 0.607 | 0.78 | 0.824 | 0.689 | 0.605 | 0.444 | 0.58 | 0.609 | 0.567 | 0.597 | 0.882 | 0.816 | 0.731 | 0.755 | 0.485 | 0.576 | 0.634 | 0.545
EMC-BAC-2 | 1.15 | 1.14 | 1.25 | 1.15 | 1.05 | 0.527 | 0.449 | 0.541 | – | 0.714 | 1.04 | 0.984 | 1.06 | 0.985 | 0.367 | 0.363 | 0.371 | 0.382
NCI-H1975 | 0.162 | 0.183 | 0.212 | 0.254 | 0.138 | 0.292 | 0.28 | 0.315 | 0.277 | 0.309 | 0.938 | 1.08 | 1.01 | 0.93 | 0.826 | 0.62 | 0.704 | 0.842
NCI-H1944 | 0.649 | 0.57 | 0.714 | 0.669 | 0.536 | 0.624 | 0.514 | 0.643 | 0.518 | 0.629 | 0.972 | 0.83 | 0.976 | 0.905 | 0.362 | 0.439 | 0.456 | 0.423
NCI-H1395 | 0.488 | 0.739 | 1.15 | 0.788 | 0.702 | 0.752 | 0.934 | 0.804 | 0.797 | 1.07 | 1.1 | 0.968 | 0.949 | 0.908 | 0.66 | 0.603 | 0.667 | 0.54
NCI-H650 | 0.775 | 0.757 | 0.737 | 0.885 | 0.949 | 1.03 | 0.881 | 0.885 | 1.15 | 1.1 | 1.06 | 1.01 | 1.12 | 1.1 | 0.47 | 0.515 | 0.468 | 0.535
NCI-H1437 | 1.13 | 1.16 | 1.11 | 1.14 | 1.12 | 0.366 | 0.33 | 0.361 | 0.296 | 0.408 | 1.34 | 1.27 | 1.31 | 1.32 | 0.893 | 0.867 | 0.82 | 0.762
NCI-H2347 | – | 0.508 | 0.358 | 0.323 | 0.529 | 0.454 | 0.4 | 0.434 | 0.462 | 0.463 | 0.826 | 1.03 | 1.36 | 0.854 | 0.4 | 0.395 | 0.38 | 0.46
NCI-H520 | 0.252 | 0.237 | 0.247 | 0.232 | 0.269 | 0.67 | 0.769 | 0.666 | 0.718 | 0.724 | 0.825 | 0.879 | 0.864 | 0.825 | 0.299 | 0.275 | 0.265 | 0.259
NCI-H1563 | 0.538 | 0.524 | 0.519 | 0.519 | 0.53 | 0.623 | 0.812 | 0.741 | 0.706 | 0.657 | 0.922 | 0.956 | 0.914 | 0.906 | 0.757 | 0.814 | 0.742 | 0.753
COR-L23 | 0.605 | 0.681 | 0.722 | 0.597 | 0.622 | 0.211 | 0.179 | 0.204 | 0.198 | 0.235 | 1.18 | 1.1 | 1.19 | 0.914 | 0.885 | 0.771 | 0.724 | 0.698
NCI-H2405 | 0.846 | 0.669 | 0.66 | 0.713 | 0.69 | 1.01 | 0.97 | – | – | 1.06 | 1.04 | 1.1 | 1.11 | 1.03 | 0.65 | 0.638 | 0.598 | 0.71
A-427 | 1.09 | 0.85 | 0.832 | 1.1 | 1.01 | 0.986 | 0.995 | 0.961 | – | 1.02 | 1.1 | 1.24 | 1.02 | 0.97 | 0.434 | 0.481 | 0.47 | 0.476
SK-LU-1 | 0.205 | 0.184 | 0.24 | 0.199 | 0.194 | – | 0.975 | 1.08 | 1 | 1.09 | 0.92 | 1.04 | 0.785 | 0.76 | 0.338 | 0.363 | 0.287 | 0.326
NCI-H2170 | 0.435 | 0.425 | 0.446 | 0.741 | 0.344 | 0.248 | 0.266 | 0.264 | 0.259 | 0.21 | 1.23 | 0.975 | 0.993 | 0.987 | 0.701 | 0.631 | 0.784 | 0.645
RERF-LC-KJ | 1.24 | 1.12 | 1.26 | 1.14 | 1.16 | 0.462 | 0.455 | 0.512 | 0.433 | 0.569 | 0.971 | 1.02 | 1.08 | 0.868 | 0.5 | 0.548 | 0.59 | 0.463
LXF-289 | 0.685 | 0.673 | 0.722 | 0.692 | 0.643 | 0.936 | 0.927 | 0.915 | 0.81 | 1.01 | 1.08 | 1.03 | 1.06 | 1 | 0.764 | 0.835 | 0.739 | 0.789
LC-2-ad | 1.06 | 1.01 | 1.14 | 1.13 | – | 0.279 | 0.272 | 0.274 | 0.258 | 0.293 | 0.878 | 0.926 | 0.975 | 0.946 | 0.877 | 1.05 | 0.78 | 0.64
